Data set [1] can be described thus: Inhibition of human ABCC1-mediated multidrug resistance in MDCK2 cells assessed as potentiation of doxorubicin-induced cytotoxicity by measuring half maximal reversal concentration after 72 hrs by MTT assay. (Tetrazolium dyes change colour on reduction, which living cells bring about.)
Data set [2] in a line: Inhibition of human ABCB1-mediated multidrug resistance in human A2780/ADR cells assessed as potentiation of doxorubicin-induced cytotoxicity by measuring half maximal reversal concentration after 72 hrs by MTT assay.
Data set [3] can be described thus: Inhibition of human ABCG2-mediated multidrug resistance in MDCK2 cells assessed as potentiation of SN-38-induced cytotoxicity by measuring half maximal reversal concentration after 72 hrs by MTT assay.

In general, EC50 refers to the concentration at which the effect is half-maximal. Turning to `Cc1cc(Nc2ccc3ncccc3c2)nc(-c2ccccc2)n1`, the figures for the EC50 in data set [1], in data set [2] and in data set [3] were 5.15 µM, 8.41 µM and 0.016 µM, respectively. Take `Cc1cc(Nc2ccc(C#N)c(C)c2)nc(-c2ccccc2)n1`: the 50% effective concentration (EC50) in data set [3] is 0.011 µM.

In the case of `Cc1cc(Nc2ccc(C#N)c(C(F)(F)F)c2)nc(-c2ccccc2)n1`, the EC50 in data set [3] turned out to be 0.015 µM. Same read-out and setting: next, `Cc1cc(Nc2ccc(C#N)c(Br)c2)nc(-c2ccccc2)n1`: 0.015 µM; `Cc1cc(Nc2ccc(F)c(C#N)c2)nc(-c2ccccc2)n1`: 0.021 µM.

`Cc1cc(Nc2ccc([N+](=O)[O-])cc2)nc(-c2ccccc2)n1`: the EC50 in data set [3] was 0.016 µM.

The values are drawn from BindingDB's records for doi:10.1021/acs.jmedchem.0c00961 (Rheinische Friedrich-Wilhelms-University Bonn, 2020).
